According to US20210038587A1, “METHODS AND COMPOSITIONS FOR TREATING NON-ERK MAPK PATHWAY INHIBITOR-RESISTANT CANCERS” (BIOMED VALLEY DISCOVERIES, INC., priority 2013, published 2021):

Legend:
Experiment in all cases: Reverse Phase Protein Analysis (RPPA)
[1] = system: Colo205; format: cell-based, human; conditions: % change from DMSO (matched cell line)
[2] = system: A375; format: cell-based, human; conditions: % change from DMSO (matched cell line)
Method: (§1) Control wells were treated with DMSO at 0.1% (v/v) for 6 hours prior to cell lysate generation. Samples were then analyzed using reverse-phase protein microarray technology (Theranostics Health).
(§2) Cell lines with common alterations in BRAF and RAS were assayed: BRAF^V600E mutant lines A375, Colo205, and HT29; KRAS^G12C-mutant cell line MIAPACa-2; KRAS^G13D-mutant cell line HCT116; and AN3Ca with atypical HRAS^F82L mutation. Changes in protein levels are shown as a percentage change from dimethyl sulfoxide (DMSO)-treated parental control (FIG. 32A and Table 23).

[3] = system: HCT116; format: cell-based, human; conditions: % change from DMSO (matched cell line)
Method: as §1, §2

[4] = system: MIAPaCa-2; format: cell-based; conditions: MIAPaca2; % change from DMSO (matched cell line)

## Cn1nccc1Nc1nccc(-c2ccn([C@H](CO)c3ccc(Cl)c(F)c3)c(=O)c2)n1 [GDC-0994]
[1]
  Avg (4ebp1 T70): −36.69%
  Avg (Akt S473): 4.45%
  Avg (Akt): −11.83%
  Avg (Bad S136): 4%
  Avg (Bad S155): −9.11%
  Avg (Bak): 6.58%
  Avg (Bax): 8.2%
  Avg (Bcl 2): 17.95%
  Avg (Bcl2 S70): −9%
  Avg (Bcl 2 T56): −4.6%
  Avg (Bim): 20.59%
  Avg (CREB S133): −11.85%
  Avg (Caspase 3 CL D175): 23.06%
  Avg (Caspase 7 Cl D198): 1.37%
  Avg (Chk1): 5.06%
  Avg (Chk1 S345): 6.08%
  Avg (Cyclin D1): −28.02%
  Avg (ERK 1 2): −3.33%
  Avg (ERK 1 2 T202 Y204): 20.01%
  Avg (MAK1 S360): 0.82%
  Avg (Mcl1): 2.5%
  Avg (Raptor S792): −9.04%
  Avg (Raptor): −5.48%
  Avg (Rictor): −5.04%
  Avg (Stat1): 7.26%
  Avg (Stat3): −0.86%
  Avg (bad S112): −6.12%
  Avg (c Fos): −21.33%
  Avg (c Myc): −6.22%
  Avg (mTOR S2448): −7.36%
  Avg (mTOR S2481): 0.96%
  Avg (mTOR): 3.39%
  Avg (p70 S6 Kinase): 5.83%
  Avg (p90 RSK S380): −57.5%
  Avg(S6 Ribo Prot S235 236): −91.19%
  Avg(S6 Ribo Prot S240 244): −91.59%
  Avg(Tuberin TSC2 Y1571): 0.66%
  Avg(p70 S6 Kinase S371 S394): −13.02%
  Avg(p70 S6 Kinase T389 T412): −32.2%
[2]
  Avg (4ebp1 T70): −29.47%
  Avg (Akt S473): 53.66%
  Avg (Akt): −20.7%
  Avg (Bad S136): −6.21%
  Avg (Bad S155): −13.31%
  Avg (Bak): 2.76%
  Avg (Bax): 3.97%
  Avg (Bcl 2): −3.13%
  Avg (Bcl2 S70): 6.3%
  Avg (Bcl 2 T56): −4.1%
  Avg (Bim): 9.8%
  Avg (CREB S133): −1.18%
  Avg (Caspase 3 CL D175): −16.74%
  Avg (Caspase 7 Cl D198): −5.53%
  Avg (Chk1): −7.72%
  Avg (Chk1 S345): −18.35%
  Avg (Cyclin D1): −81.65%
  Avg (ERK 1 2): 31.55%
  Avg (ERK 1 2 T202 Y204): 142.37%
  Avg (MAK1 S360): −5.21%
  Avg (Mcl1): −9.09%
  Avg (Raptor S792): −15.93%
  Avg (Raptor): −14.32%
  Avg (Rictor): −23.29%
  Avg (Stat1): −5.67%
  Avg (Stat3): 14.24%
  Avg (bad S112): −55.32%
  Avg (c Fos): −12.46%
  Avg (c Myc): −9.11%
  Avg (mTOR S2448): −23.61%
  Avg (mTOR S2481): −19.37%
  Avg (mTOR): −6.2%
  Avg (p70 S6 Kinase): −18.11%
  Avg (p90 RSK S380): −60.74%
  Avg(S6 Ribo Prot S235 236): −87.61%
  Avg(S6 Ribo Prot S240 244): −80.3%
  Avg(Tuberin TSC2 Y1571): −16.74%
  Avg(p70 S6 Kinase S371 S394): −17.34%
  Avg(p70 S6 Kinase T389 T412): −31.9%
[3]
  Avg (4ebp1 T70): 20.5%
  Avg (Akt S473): 4.69%
  Avg (Akt): −6.13%
  Avg (Bad S136): −1.24%
  Avg (Bad S155): −19.71%
  Avg (Bak): −1.74%
  Avg (Bax): −20.11%
  Avg (Bcl 2): −4.56%
  Avg (Bcl2 S70): −12.53%
  Avg (Bcl 2 T56): −11.96%
  Avg (Bim): 6.2%
  Avg (CREB S133): −8.56%
  Avg (Caspase 3 CL D175): −8.36%
  Avg (Caspase 7 Cl D198): −13.99%
  Avg (Chk1): 2.28%
  Avg (Chk1 S345): −18.77%
  Avg (Cyclin D1): −63.59%
  Avg (ERK 1 2): −1.9%
  Avg (ERK 1 2 T202 Y204): 526.64%
  Avg (MAK1 S360): −12.93%
  Avg (Mcl1): −4.77%
  Avg (Raptor S792): −15.77%
  Avg (Raptor): −6.2%
  Avg (Rictor): −10.98%
  Avg (Stat1): −6.32%
  Avg (Stat3): −0.25%
  Avg (bad S112): −12.36%
  Avg (c Fos): −10.36%
  Avg (c Myc): −12.03%
  Avg (mTOR S2448): −19.33%
  Avg (mTOR S2481): −18.34%
  Avg (mTOR): −4.85%
  Avg (p70 S6 Kinase): −9.9%
  Avg (p90 RSK S380): −22.25%
  Avg(S6 Ribo Prot S235 236): −94.82%
  Avg(S6 Ribo Prot S240 244): −95.1%
  Avg(Tuberin TSC2 Y1571): −9.4%
  Avg(p70 S6 Kinase S371 S394): −11.47%
  Avg(p70 S6 Kinase T389 T412): −24.73%
[4]
  Avg (4ebp1 T70): −34.01%
  Avg (Akt S473): 2.24%
  Avg (Akt): 4.33%
  Avg (Bad S136): 2.25%
  Avg (Bad S155): 8.18%
  Avg (Bak): −8.11%
  Avg (Bax): 3.48%
  Avg (Bcl 2): −7.8%
  Avg (Bcl2 S70): −6.78%
  Avg (Bcl 2 T56): −2.12%
  Avg (Bim): 5.07%
  Avg (CREB S133): −21.37%
  Avg (Caspase 3 CL D175): 10.47%
  Avg (Caspase 7 Cl D198): −4.92%
  Avg (Chk1): 6.56%
  Avg (Chk1 S345): 32.96%
  Avg (Cyclin D1): −31.92%
  Avg (ERK 1 2): −6.88%
  Avg (ERK 1 2 T202 Y204): 199.59%
  Avg (MAK1 S360): −5.25%
  Avg (Mcl1): −1.79%
  Avg (Raptor S792): 2.18%
  Avg (Raptor): 22.43%
  Avg (Rictor): −11.25%
  Avg (Stat1): 7.4%
  Avg (Stat3): −9.44%
  Avg (bad S112): −10.08%
  Avg (c Fos): −16.12%
  Avg (c Myc): −7.84%
  Avg (mTOR S2448): 11.84%
  Avg (mTOR S2481): 3.65%
  Avg (mTOR): −9.8%
  Avg (p70 S6 Kinase): −3.25%
  Avg (p90 RSK S380): −39.09%
  Avg(S6 Ribo Prot S235 236): −67.9%
  Avg(S6 Ribo Prot S240 244): −75.59%
  Avg(Tuberin TSC2 Y1571): 5.71%
  Avg(p70 S6 Kinase S371 S394): −14.4%
  Avg(p70 S6 Kinase T389 T412): −40.99%
